Assay [1] concerns the target T1, Beta-secretase 1 (Homo sapiens, UniProt P56817). The assay can be described thus: Inhibitory concentration of compound against Beta-secretase 1 was evaluated.
The target of assay [2] is T1, Beta-secretase 1. The experiment in a line: Inhibition of Beta-secretase 1 at 2 uM concentration.

Data on 28 compounds can be found in ChEMBL document CHEMBL1147635, “KMI-358 and KMI-370, highly potent and small-sized BACE1 inhibitors containing phenylnorstatine” (Bioorg Med Chem Lett, 2004).

*1 amine or outer side, *2 acyl side, *3 side chain or, on linkers, in order; H or OH if unused. Where a SMILES comes first, the peptide text is derived from it. [ ]: non-standard residue; d: D form. β3hPhe(2R-OH) = O=C([C@H](O)[C@H](Cc1ccccc1)N[*:1])[*:2]; Dap = NC[C@H](N)C(=O)O; CO = O=C([*:1])[*:2] Where only a bound is given, the exact number is not on record here.

As a reminder, the IC50 is the concentration at which inhibition is half-maximal. Broadly, the inhibition is how much of the control response was suppressed. A high value points to a strong effect.

T1 sequence (P56817 whole entry): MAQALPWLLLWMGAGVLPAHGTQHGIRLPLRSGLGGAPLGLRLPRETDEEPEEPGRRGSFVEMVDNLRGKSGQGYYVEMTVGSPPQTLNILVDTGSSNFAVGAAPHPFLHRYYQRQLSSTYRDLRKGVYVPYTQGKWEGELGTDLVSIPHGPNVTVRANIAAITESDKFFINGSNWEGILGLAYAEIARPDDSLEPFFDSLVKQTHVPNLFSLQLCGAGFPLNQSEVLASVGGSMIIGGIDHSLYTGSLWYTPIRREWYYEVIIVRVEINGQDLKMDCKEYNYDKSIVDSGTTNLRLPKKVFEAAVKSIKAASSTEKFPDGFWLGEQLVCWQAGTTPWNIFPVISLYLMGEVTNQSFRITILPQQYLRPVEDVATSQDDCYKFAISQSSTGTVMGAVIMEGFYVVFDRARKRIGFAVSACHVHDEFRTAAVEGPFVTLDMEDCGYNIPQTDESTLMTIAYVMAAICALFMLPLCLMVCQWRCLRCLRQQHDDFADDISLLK

In turn, `CC(C)C[C@H](NC(=O)[C@@H](NC(=O)[C@@H](N)CNC(=O)O)C(C)C)C(=O)N[C@@H](Cc1ccccc1)[C@@H](O)C(=O)Nc1cc(C(=O)O)cc(C(=O)O)c1` showed an IC50 on Beta-secretase 1 [1] of 3.4 nM. In other words, the single-digit nanomolar range. `CC(C)C[C@H](NC(=O)[C@@H](NC(=O)[C@@H](N)CCC(=O)O)C(C)C)C(=O)N[C@@H](Cc1ccccc1)[C@@H](O)C(=O)Nc1cc(C(=O)O)cc(C(=O)O)c1` had an inhibition against Beta-secretase 1 [2] greater than 90%. This compound registered a half-inhibitory concentration (IC50) against Beta-secretase 1 [1] of 55 nM. Take `CC(C)C[C@H](NC(=O)[C@@H](NC(=O)[C@@H](N)CNC(=O)O)C(C)C)C(=O)N[C@@H](Cc1ccccc1)[C@@H](O)C(=O)Nc1cccc(C(=O)O)c1`: the IC50 against Beta-secretase 1 [1] worked out at 16 nM. That is a double-digit nanomolar value.

Turning to `CC(C)C[C@H](NC(=O)[C@@H](NC(=O)[C@@H](N)CCC(=O)O)C(C)C)C(=O)N[C@@H](Cc1ccccc1)[C@@H](O)C(=O)NCc1ccc(C(=O)O)cc1`, the inhibition against Beta-secretase 1 [2] turned out to be 52%.

For `CC(C)C[C@H](NC(=O)[C@@H](NC(=O)[C@@H](N)CCC(=O)O)C(C)C)C(=O)N[C@@H](Cc1ccccc1)[C@@H](O)C(=O)NCc1cccc(C(=O)O)c1`, the inhibition on Beta-secretase 1 [2] turned out to be 64%.

Take `CC(C)C[C@H](NC(=O)[C@@H](NC(=O)[C@@H](N)CCC(=O)O)C(C)C)C(=O)N[C@@H](Cc1ccccc1)[C@@H](O)C(=O)NCc1ccccc1`: at Beta-secretase 1 [2], the inhibition was determined as 30%. Still for that read-out and setting: in the case of `CC(C)C[C@H](NC(=O)[C@@H](NC(=O)[C@@H](N)CCC(=O)O)C(C)C)C(=O)N[C@@H](Cc1ccccc1)[C@@H](O)C(=O)Nc1ccc(C(=O)O)cc1` it was 79%. With `CC(C)C[C@H](NC(=O)[C@@H](NC(=O)[C@@H](N)CNC(=O)O)C(C)C)C(=O)N[C@@H](Cc1ccccc1)[C@@H](O)C(=O)N[C@@H](CC(=O)O)C(=O)N[C@@H](C)C(=O)N[C@@H](CCC(=O)O)C(=O)O` (H-[Dap](CO)VL[β3hPhe(2R-OH)]DAE-OH), at Beta-secretase 1 [2], the inhibition was greater than 90%. The compound further displayed an IC50 against Beta-secretase 1 [1] of 84 nM. Consider `CC(C)C[C@H](NC(=O)[C@@H](NC(=O)[C@@H](N)CC(=O)O)C(C)C)C(=O)N[C@@H](Cc1ccccc1)[C@@H](O)C(=O)N[C@@H](CC(=O)O)C(=O)N[C@@H](C)C(=O)N[C@@H](CCC(=O)O)C(=O)O` (HELM PEPTIDE1{D.V.L.[O=C([C@H](O)[C@H](Cc1ccccc1)N[*:1])[*:2]].D.A.E}$$$$V2.0), for which the inhibition against Beta-secretase 1 [2] was less than 20%. The same measure, in the same setting: in the case of `CC(C)[C@H](NC(=O)[C@@H](N)CCC(=O)O)C(=O)NCC(=O)N[C@@H](Cc1ccccc1)[C@@H](O)C(=O)N[C@@H](CC(=O)O)C(=O)N[C@@H](C)C(=O)N[C@@H](CCC(=O)O)C(=O)N[C@@H](Cc1ccccc1)C(=O)O` (HELM PEPTIDE1{E.V.G.[O=C([C@H](O)[C@H](Cc1ccccc1)N[*:1])[*:2]].D.A.E.F}$$$$V2.0) it was less than 20%.

For `CC(C)C[C@H](NC(=O)[C@@H](NC(=O)[C@@H](N)CCC(=O)O)C(C)C)C(=O)N[C@@H](Cc1ccccc1)[C@@H](O)C(=O)N[C@@H](CC(=O)O)C(=O)N[C@@H](C)C(=O)N[C@@H](CCC(=O)O)C(=O)N[C@@H](Cc1ccccc1)C(=O)O` (HELM PEPTIDE1{E.V.L.[O=C([C@H](O)[C@H](Cc1ccccc1)N[*:1])[*:2]].D.A.E.F}$$$$V2.0), at Beta-secretase 1 [2], the inhibition was less than 90%. At Beta-secretase 1 [2], `CC(C)C[C@H](NC(=O)[C@@H](NC(=O)[C@@H](N)CCC(=O)O)C(C)C)C(=O)N[C@@H](Cc1ccccc1)[C@@H](O)C(=O)N[C@@H](CC(=O)O)C(=O)N[C@@H](C)C(=O)N[C@@H](CCC(=O)O)C(=O)NCC(=O)O` (HELM PEPTIDE1{E.V.L.[O=C([C@H](O)[C@H](Cc1ccccc1)N[*:1])[*:2]].D.A.E.G}$$$$V2.0) showed an inhibition of 65%. `CC(C)C[C@H](NC(=O)[C@@H](NC(=O)[C@@H](N)CCC(=O)O)C(C)C)C(=O)N[C@@H](Cc1ccccc1)[C@@H](O)C(=O)N[C@@H](CC(=O)O)C(=O)N[C@@H](C)C(=O)N[C@@H](CCC(=O)O)C(=O)O` (HELM PEPTIDE1{E.V.L.[O=C([C@H](O)[C@H](Cc1ccccc1)N[*:1])[*:2]].D.A.E}$$$$V2.0) had an inhibition at Beta-secretase 1 [2] of 60%. The same measure, in the same setting: the result for `CC(C)C[C@H](NC(=O)[C@@H](NC(=O)[C@@H](N)CCC(=O)O)C(C)C)C(=O)N[C@@H](Cc1ccccc1)[C@@H](O)C(=O)N[C@@H](CC(=O)O)C(=O)N[C@@H](C)C(=O)O` (HELM PEPTIDE1{E.V.L.[O=C([C@H](O)[C@H](Cc1ccccc1)N[*:1])[*:2]].D.A}$$$$V2.0) reads 46%; that for `CC(C)C[C@H](NC(=O)[C@@H](NC(=O)[C@@H](N)CCC(=O)O)C(C)C)C(=O)N[C@@H](Cc1ccccc1)[C@@H](O)C(=O)N[C@@H](CC(=O)O)C(=O)NCC(=O)N[C@@H](CCC(=O)O)C(=O)N[C@@H](Cc1ccccc1)C(=O)O` (HELM PEPTIDE1{E.V.L.[O=C([C@H](O)[C@H](Cc1ccccc1)N[*:1])[*:2]].D.G.E.F}$$$$V2.0), 73%. `CC(C)C[C@H](NC(=O)[C@@H](NC(=O)[C@@H](N)CCC(=O)O)C(C)C)C(=O)N[C@@H](Cc1ccccc1)[C@@H](O)C(=O)N[C@@H](CC(=O)O)C(=O)O` (HELM PEPTIDE1{E.V.L.[O=C([C@H](O)[C@H](Cc1ccccc1)N[*:1])[*:2]].D}$$$$V2.0): the inhibition against Beta-secretase 1 [2] came out at 61%.

With `CC(C)C[C@H](NC(=O)[C@@H](NC(=O)[C@@H](N)CCC(=O)O)C(C)C)C(=O)N[C@@H](Cc1ccccc1)[C@@H](O)C(=O)NCC(=O)N[C@@H](C)C(=O)N[C@@H](CCC(=O)O)C(=O)N[C@@H](Cc1ccccc1)C(=O)O` (HELM PEPTIDE1{E.V.L.[O=C([C@H](O)[C@H](Cc1ccccc1)N[*:1])[*:2]].G.A.E.F}$$$$V2.0), the inhibition against Beta-secretase 1 [2] came to 54%.

`CC(C)C[C@H](NC(=O)[C@@H](NC(=O)CN)C(C)C)C(=O)N[C@@H](Cc1ccccc1)[C@@H](O)C(=O)N[C@@H](CC(=O)O)C(=O)N[C@@H](C)C(=O)N[C@@H](CCC(=O)O)C(=O)N[C@@H](Cc1ccccc1)C(=O)O` (HELM PEPTIDE1{G.V.L.[O=C([C@H](O)[C@H](Cc1ccccc1)N[*:1])[*:2]].D.A.E.F}$$$$V2.0) came in with an inhibition against Beta-secretase 1 [2] of less than 20%.

With `CC(C)C[C@H](N)C(=O)N[C@@H](Cc1ccccc1)[C@@H](O)C(=O)N[C@@H](CC(=O)O)C(=O)N[C@@H](C)C(=O)N[C@@H](CCC(=O)O)C(=O)N[C@@H](Cc1ccccc1)C(=O)O` (HELM PEPTIDE1{L.[O=C([C@H](O)[C@H](Cc1ccccc1)N[*:1])[*:2]].D.A.E.F}$$$$V2.0), the inhibition on Beta-secretase 1 [2] is less than 20%.

`CC(C)C[C@H](NC(=O)[C@@H](NC(=O)[C@@H](N)CCC(N)=O)C(C)C)C(=O)N[C@@H](Cc1ccccc1)[C@@H](O)C(=O)N[C@@H](CC(=O)O)C(=O)N[C@@H](C)C(=O)N[C@@H](CCC(=O)O)C(=O)O` (HELM PEPTIDE1{Q.V.L.[O=C([C@H](O)[C@H](Cc1ccccc1)N[*:1])[*:2]].D.A.E}$$$$V2.0) showed an inhibition against Beta-secretase 1 [2] of less than 20%. Consider `CC(C)C[C@H](NC(=O)[C@@H](N)C(C)C)C(=O)N[C@@H](Cc1ccccc1)[C@@H](O)C(=O)N[C@@H](CC(=O)O)C(=O)N[C@@H](C)C(=O)N[C@@H](CCC(=O)O)C(=O)N[C@@H](Cc1ccccc1)C(=O)O` (HELM PEPTIDE1{V.L.[O=C([C@H](O)[C@H](Cc1ccccc1)N[*:1])[*:2]].D.A.E.F}$$$$V2.0), for which, on Beta-secretase 1 [2], the inhibition is less than 20%.

In turn, `CC(C)C[C@H](NC(=O)[C@@H](NC(=O)[C@@H](N)CCCC(=O)O)C(C)C)C(=O)N[C@@H](Cc1ccccc1)[C@@H](O)C(=O)N[C@@H](CC(=O)O)C(=O)N[C@@H](C)C(=O)N[C@@H](CCC(=O)O)C(=O)O` (HELM PEPTIDE1{[N[C@@H](CCCC(=O)O)C(=O)[*:2]].V.L.[O=C([C@H](O)[C@H](Cc1ccccc1)N[*:1])[*:2]].D.A.E}$$$$V2.0) had an inhibition against Beta-secretase 1 [2] of 43%. On the same count and under the same terms, in the case of `C[C@H](NC(=O)[C@H](CC(=O)O)NC(=O)[C@H](O)[C@@H](N)Cc1ccccc1)C(=O)N[C@@H](CCC(=O)O)C(=O)N[C@@H](Cc1ccccc1)C(=O)O` (HELM PEPTIDE1{[N[C@@H](Cc1ccccc1)[C@@H](O)C(=O)[*:2]].D.A.E.F}$$$$V2.0) it was less than 20%. On to `CC(C)C[C@H](NC(=O)[C@@H](NC(=O)CCCC(=O)O)C(C)C)C(=O)N[C@@H](Cc1ccccc1)[C@@H](O)C(=O)N[C@@H](CC(=O)O)C(=O)N[C@@H](C)C(=O)N[C@@H](CCC(=O)O)C(=O)O` (HELM PEPTIDE1{[O=C(O)CCCC(=O)[*:2]].V.L.[O=C([C@H](O)[C@H](Cc1ccccc1)N[*:1])[*:2]].D.A.E}$$$$V2.0), for which, on Beta-secretase 1 [2], the inhibition was less than 20%. In the case of `CC(C)C[C@H](NC(=O)[C@@H](NC(=O)[C@@H](N)CCC(=O)O)C(C)C)C(=O)N[C@@H](Cc1ccccc1)[C@@H](O)C(=O)Nc1cccc(C(=O)O)c1` (mixture of isomers), the inhibition on Beta-secretase 1 [2] came to 82%. Consider `CC(C)C[C@H](NC(=O)[C@@H](NC(=O)[C@@H](N)CCC(=O)O)C(C)C)C(=O)N[C@@H](Cc1ccccc1)[C@@H](O)C(=O)O` (mixture of isomers), for which, on Beta-secretase 1 [2], the inhibition was found to be 34%. Same read-out and setting: in the case of `CC(C)C[C@H](NC(=O)CNC(=O)[C@@H](N)CCC(=O)O)C(=O)N[C@@H](Cc1ccccc1)C(O)C(=O)N[C@@H](CC(=O)O)C(=O)NC(C)C(=O)N[C@@H](CCC(=O)O)C(=O)N[C@@H](Cc1ccccc1)C(=O)O` (single isomer, unassigned) it was less than 20%; in that of `CC(C)C[C@H](NC(=O)[C@@H](NC(=O)[C@@H](N)CCC(=O)O)C(C)C)C(=O)N[C@@H](Cc1ccccc1)[C@@H](O)C(=O)N[C@@H](CC(=O)O)C(=O)NC(C)C(=O)NCC(=O)N[C@@H](Cc1ccccc1)C(=O)O` (single isomer, unassigned), 56%.
